Assay results taken from ChEMBL document CHEMBL2062458, “Cyclic heptapeptides, cordyheptapeptides C-E, from the marine-derived fungus Acremonium persicinum SCSIO 115 and their cytotoxic activities” (J Nat Prod, 2012).
Peptide text beside a SMILES is read from it.

What was measured:
Type in all cases: functional, cell-based
SF-268 = assay: Cytotoxicity against human SF268 cells after 72 hrs by sulforhodamine B assay; settings: SF-268, 72 h
MCF7 = assay: Cytotoxicity against human MCF7 cells after 72 hrs by sulforhodamine B assay; settings: MCF7, 72 h
NCI-H460 = assay: Cytotoxicity against human NCI-H460 cells after 72 hrs by sulforhodamine B assay; settings: NCI-H460, 72 h

CC[C@@H](C)[C@@H]1NC(=O)[C@H](Cc2ccc(O)cc2)N(C)C(=O)[C@H](Cc2ccccc2)NC(=O)CN(C)C(=O)[C@@H]2CCCN2C(=O)[C@@H](Cc2ccc(O)cc2)N(C)C(=O)[C@H](CC(C)C)NC1=O [Cordyheptapeptide E]
IC50 (SF-268): 3.2 µM | IC50 (MCF7): 2.7 µM | IC50 (NCI-H460): 4.5 µM

CC(C)C[C@@H]1NC(=O)[C@H](C(C)C)NC(=O)[C@H](Cc2ccc(O)cc2)N(C)C(=O)[C@H](Cc2ccccc2)NC(=O)CN(C)C(=O)[C@@H]2CCCN2C(=O)[C@@H](Cc2ccc(O)cc2)N(C)C1=O [Cordyheptapeptide D]
IC50 (SF-268): 45.6 µM | IC50 (MCF7): 82.7 µM | IC50 (NCI-H460): > 100 µM

CC(C)C[C@@H]1NC(=O)[C@H](C(C)C)NC(=O)[C@H](Cc2ccc(O)cc2)N(C)C(=O)[C@H](Cc2ccccc2)NC(=O)CN(C)C(=O)[C@@H]2CCCN2C(=O)[C@@H](Cc2ccccc2)N(C)C1=O [Cordyheptapeptide C] (HELM PEPTIDE1{F.[meY].V.L.[CN([C@H](Cc1ccccc1)C(=O)[*:2])[*:1]].P.[Sar]}$PEPTIDE1,PEPTIDE1,1:R1-7:R2$$$V2.0)
IC50 (SF-268): 3.7 µM | IC50 (MCF7): 3 µM | IC50 (NCI-H460): 11.6 µM
